In US9469652B2, “ERK inhibitors” (Eli Lilly and Company, priority 2014, dated 2016):

What was measured:
[1] = system: human non-small cell lung cancer cells NCI-H2122 (KRAS_G12C); assay: In vivo combination study, NCI-H2122 NSCLC xenograft model; design: species or system female athymic nude mice; conditions: single agent
Experimental: (§1) More specifically, the compound of Example 1 is tested in combination with either the pan-RAF inhibitor compound or the CDK4/6 inhibitor compound in HCT116, a KRAS mutant colorectal cancer xenograft model. Also, the compound of Example 1 is tested in combination with either the CDK4/6 inhibitor compound or DC101 in NCI-H441, A549, and NCI-H2122, KRAS mutant non-small cell lung cancer (NSCLC) xenograft models.
(§2) Combination efficacy is also tested in three KRAS mutant NSCLC xenograft models including A549 (KRAS_G12S) in SCID mice as well as NCI-H441 (KRAS_G12V) and NCI-H2122 (KRAS_G12C) in athymic nude mice. Expand human non-small cell lung cancer cells NCI-H441 (ATCC, #CRL-5807) and NCI-H2122 (ATCC, #CRL-5985) in culture, harvest and inject 5×10e^6 cells in 200 μL of 1:1 HBSS+matrigel solution subcutaneously on to the rear right flank of female athymic nude mice (20-22 gm, Harlan Laboratories). Expand human non-small cell lung cancer cells A549 (ATCC, #CC1-185) in culture, harvest and inject 5×10e^6 cells in 200 μL of 1:1 HBSS+matrigel solution subcutaneously on to the rear right flank of female CB-17 SCID mice (18-20 gm, Taconic Farms). For all cell lines, measure tumor growth and body weight twice per week beginning the seventh day after the implantation. When average tumor sizes reach 200-300 mm^3, randomize animals and group into groups of five to seven animals. Prepare test compound in an appropriate vehicle (see below) and administer by oral gavage (compound of Example 1 and the CDK4/6 inhibitor compound) or intraperitoneally (DC101) for 21 to 28 days. Tumor response is determined by tumor volume measurement performed twice a week during the course of treatment. Vehicle used in these studies is 1% HEC/0.25% Tween® 80/0.05% Antifoam. The compound of Example 1 is formulated in 1% HEC/0.25% Tween® 80/0.05% Antifoam and the CDK4/6 inhibitor compound is formulated in 1% HEC in 25 mM sodium phosphate buffer, pH 2. […] In the same NCI-H441 xenograft model, DC101 in phosphate buffer is also administered intraperitoneally twice per week (BIW) as a single agent or in combination with the compound of Example 1, 50 mpk, QD for 28 days.

[2] = system: human colorectal cancer cells HCT116; assay: In vivo combination study, HCT116 KRAS mutant colorectal cancer xenograft model; conditions: oral, 28 days, single agent
Experimental: as §1
The HCT116 combination efficacy study is done in athymic nude rats. Expand human colorectal cancer cells HCT116 (ATCC, #CCL-247) in culture, harvest and inject 5×10e^6 cells in 200 μL of 1:1 HBSS+matrigel solution subcutaneously on to the rear right flank of female NIH nude rats (120-145 gm, Taconic Farms). Measure tumor growth and body weight twice per week beginning the seventh day after the implantation. When average tumor sizes reach 200-300 mm^3, randomize animals and group into groups of five to seven animals. Prepare test compound in an appropriate vehicle (see below) and administer by oral gavage for 21 to 28 days. Tumor response is determined by tumor volume measurement performed twice a week during the course of treatment. Vehicle used in this study is 1% HEC (hydroxy ethyl cellulose)/0.25% Tween® 80/0.05% Antifoam. The compound of Example 1 and the pan-RAF inhibitor compound are formulated in 1% HEC/0.25% Tween® 80/0.05% Antifoam. The CDK4/6 inhibitor compound is formulated in 1% HEC in 25 mM Sodium phosphate buffer, pH 2.

[3] = system: human non-small cell lung cancer cells NCI-H441 (KRAS_G12V); assay: In vivo combination study, NCI-H441 NSCLC xenograft model; conditions: single agent
Experimental: as §1, §2

[4] = system: human non-small cell lung cancer cells A549 (KRAS_G12S); assay: In vivo combination study, A549 NSCLC xenograft model; design: species or system female CB-17 SCID mice; conditions: single agent
Experimental: as §1, §2

Row | Structure (SMILES) | Delta T/C % ([1]; 50 mg/kg QD, oral, 28 days) [%] | tumor growth inhibition ([1]; 50 mpk) [%] | Delta T/C % ([2]; 20 mg/kg QD) [%] | TGI % ([2]; 20 mg/kg QD) [%] | Delta T/C % ([3]; 50 mg/kg QD, oral, 28 days) [%] | tumor growth inhibition ([3]; 50 mpk) [%] | Delta T/C % ([4]; 50 mg/kg QD, oral, 28 days) [%] | tumor growth inhibition ([4]; 50 mpk) [%] | Delta T/C % ([2]; 10 mg/kg BID) [%] | TGI % ([2]; 10 mg/kg BID) [%] | Delta T/C % ([2]; 20 mg/kg BID) [%] | TGI % ([2]; 20 mg/kg BID) [%]
1 | CCN1CCN(Cc2ccc(Nc3ncc(F)c(-c4cc(F)c5nc(C)n(C(C)C)c5c4)n3)nc2)CC1 [CDK4/6 inhibitor, [5-(4-ethyl-piperazin-1-ylmethyl)-pyridin-2-yl]-[5-fluoro-4-(7-fluoro-3-isopropyl-2-methyl-3H-benzoimidazol-5-yl)-pyrimidin-2-yl]-amine, reference compound] | 47 | 53 | 24 | 76 | 19 | 81 | 49 | 51 | – | – | – | –
2 | CNc1ncc2cc(-c3cc(NC(=O)NCCC(C)(C)C)c(F)cc3C)c(C)nc2n1 [pan-RAF inhibitor, 1-(3,3-dimethylbutyl)-3-(2-fluoro-4-methyl-5-(7-methyl-2-(methylamino)pyrido[2,3-d]pyrimidin-6-yl)phenyl)urea] | – | – | – | – | – | – | – | – | 71 | 29 | 32 | 68
